Read-outs that look alike come from different tables or passages of the source.
Columns and labels:
Septoria tritici = experiment: Test J: wheat leaf blotch, preventive spray on wheat seedlings; format: in vivo
Excerpt: A dash (-) indicates no test results.

Phytophthora infestans = experiment: whole plant or invertebrate; format: in vivo; conditions: for Test F disease control rating: 200 ppm, 100 = 100% disease control, 0 = no control
[1] = test system: Colletotrichum orbiculare; experiment: Test B: cucumber Colletotrichum anthracnose, preventive spray on cucumber seedlings; conditions: for Test B disease control rating: 200 ppm
fusarium graminearium = experiment: Test I: wheat head scab, preventive spray on wheat seedlings; conditions: for pest or weed control at 200 ppm / pest or weed control at 40 ppm: Fusarium, in Triticum aestivum, topical, 192 h; for pest or weed control at 200 ppm: read-out: Test I disease control rating, 200 ppm; for Test I disease control rating: 200 ppm
Description: (the causal agent of wheat head scab) and incubated in a saturated atmosphere at 20° C. for 72 h, and then moved to a growth chamber at 22° C. for 5 days, after which disease ratings were made.

Botrytis cinerea = experiment: Test E: tomato botrytis, preventive spray on tomato seedlings; conditions: for Test E disease control rating: 200 ppm, 100 = 100% disease control, 0 = no control
Plasmopara viticola = experiment: Test D: grape downy mildew, spray after inoculation of grape seedlings; format: in vivo; conditions: for pest or weed control at 200 ppm / pest or weed control at 40 ppm: Plasmopara viticola, 168 h, read-out: Test D disease control rating; for pest or weed control at 200 ppm / Test D disease control rating: 200 ppm
Excerpt: Upon removal, disease ratings were made. […] A dash (-) indicates no test results.

[2] = test system: Erysiphe graminis f. sp. tritici; experiment: Test L: wheat powdery mildew, preventive spray on wheat seedlings; conditions: for Test L disease control rating: 200 ppm
[3] = test system: Puccinia recondita f. sp. tritici; experiment: Test K: wheat leaf rust, preventive spray on wheat seedlings; conditions: for Test K disease control rating: 200 ppm, 100 = 100% disease control, 0 = no control
Septoria nodorum = experiment: Test H: wheat glum blotch, preventive spray on wheat seedlings; conditions: for Test H disease control rating: 200 ppm
Description: (the causal agent of wheat glum blotch) and incubated in a saturated atmosphere at 20° C. for 48 h, and then moved to a growth chamber at 22° C. for 5 days, after which disease ratings were made.

Rhizoctonia oryzae = experiment: Test G: turf brown patch, preventive spray on creeping bent grass seedlings; conditions: for Test G disease control rating: 200 ppm
Description: (the causal agent of turf brown patch) and incubated in a saturated atmosphere at 27° C. for 24 h, and then moved to a growth chamber at 27° C. for 5 days, after which disease ratings were made.

Pythium aphanidermatum = experiment: Test A: bluegrass pythium blight, preventive spray on bluegrass seedlings; conditions: for pest or weed control at 200 ppm / pest or weed control at 40 ppm: Pythium aphanidermatum, 120 h, read-out: Test A disease control rating; for Test A disease control rating: 200 ppm, 100 = 100% disease control, 0 = no control
Sclerotinia sclerotiorum = experiment: Test C: cucumber white mold, preventive spray on cucumber seedlings; conditions: for Test C disease control rating: 200 ppm, 100 = 100% disease control, 0 = no control
[4] = Zymoseptoria tritici, 528 h, 40 ppm (*), read-out: Test J disease control rating
[5] = Phytophthora infestans, in Solanum lycopersicum, topical, 144 h, read-out: Test F disease control rating
[6] = Colletotrichum orbiculare, in Cucumis sativus, 144 h, read-out: Test B disease control rating, 40 ppm (*)
[7] = Botrytis cinerea, in Solanum lycopersicum, topical, 72 h, read-out: Test E disease control rating
[8] = Blumeria graminis, in Triticum aestivum, 168 h, read-out: Test L disease control rating, 40 ppm (*)
[9] = Puccinia recondita, in Triticum aestivum, 192 h, read-out: Test K disease control rating
[10] = Parastagonospora nodorum, in Triticum aestivum, topical, 168 h, read-out: Test H disease control rating, 40 ppm (*)
[11] = Waitea circinata, in Agrostis stolonifera, topical, 144 h, read-out: Test G disease control rating, 40 ppm (*)
[12] = 100 = 100% disease control, 0 = no control relative to controls
[13] = 200 ppm, 100 = 100% disease control, 0 = no control
[14] = 100 = 100% disease control, 0 = no control

| Compound | pest or weed control at 40 ppm (Botrytis cinerea; [7]) [%] | pest or weed control at 40 ppm [3, 9] [%] | melting point [°C] | Test J disease control rating (Septoria tritici; [13]) [%] | Test F disease control rating (Phytophthora infestans) [%] | Test B disease control rating [1, 14] [%] | Test I disease control rating (fusarium graminearium; [14]) [%] | Test E disease control rating (Botrytis cinerea) [%] | Test D disease control rating (Plasmopara viticola; [14]) [%] | Test L disease control rating [2, 14] [%] | Test K disease control rating [3] [%] | Test C disease control rating (Sclerotinia sclerotiorum) [%] | Test H disease control rating (Septoria nodorum; [14]) [%] | Test G disease control rating (Rhizoctonia oryzae; [14]) [%] | Test A disease control rating (Pythium aphanidermatum) [%] | further results |
| --- | --- | --- | --- | --- | --- | --- | --- | --- | --- | --- | --- | --- | --- | --- | --- | --- |
| Cc1nc(-n2cccn2)c(=O)n(CC(C)C)c1-c1c(F)cccc1F [Compound 149, 5-Methyl-6-(2,6-difluorophenyl)-1-(2-methylpropyl)-3-(1H-pyrazol-1-yl)-2(1H)-pyrazinone] | 100 | 100 | 105 to 106 | – | – | – | – | – | – | – | – | – | – | – | – | pest or weed control at 40 ppm (Septoria tritici; [4]): 100%; pest or weed control at 200 ppm (Phytophthora infestans; [5]): 0%; pest or weed control at 40 ppm [1, 6]: 0%; pest or weed control at 200 ppm (fusarium graminearium): 0%; pest or weed control at 200 ppm (Plasmopara viticola): 0%; pest or weed control at 40 ppm [2, 8]: 100%; pest or weed control at 40 ppm (Septoria nodorum; [10]): 98%; pest or weed control at 40 ppm (Rhizoctonia oryzae; [11]): 99%; pest or weed control at 200 ppm (Pythium aphanidermatum): 0% |
| CC[C@H](C)Cn1c(-c2c(F)cc(F)cc2F)c(Cl)nc(-n2cccn2)c1=O [Compound 155, 5-Chloro-1-[(2S)-2-methylbutyl)-3-(1H-pyrazol-1-yl)-6-(2,4,6-trifluorophenyl)-2(1H)-pyrazinone] | 100 | 100 | 112 to 113 | – | – | – | – | – | – | – | – | – | – | – | – | pest or weed control at 40 ppm (Septoria tritici; [4]): 100%; pest or weed control at 40 ppm (Phytophthora infestans; [5]): 0%; pest or weed control at 40 ppm [1, 6]: 100%; pest or weed control at 40 ppm (fusarium graminearium; read-out: Test I disease control rating, 40 ppm (*)): 0%; pest or weed control at 40 ppm (Plasmopara viticola; 40 ppm (*)): 47%; pest or weed control at 40 ppm [2, 8]: 100%; pest or weed control at 40 ppm (Sclerotinia sclerotiorum; Sclerotinia sclerotiorum, in Cucumis sativus, 168 h, read-out: Test C disease control rating, 40 ppm (*)): 99%; pest or weed control at 40 ppm (Septoria nodorum; [10]): 100%; pest or weed control at 40 ppm (Rhizoctonia oryzae; [11]): 100%; pest or weed control at 40 ppm (Pythium aphanidermatum): 0% |
| O=c1c(-n2cccn2)nc(Cl)c(-c2c(F)ccc(F)c2F)n1-c1ccccc1 [Compound 357, 5-Chloro-1-phenyl-3-(1H-pyrazol-1-yl)-6-(2,3,6-trifluorophenyl)-2(1H)-pyrazinone] | 99 | 99 | 250 to 260 | – | – | – | – | – | – | – | – | – | – | – | – | pest or weed control at 40 ppm (Septoria tritici; Zymoseptoria tritici, 528 h, 40 ppm (marked *), 100 = 100% disease control, 0 = no control, read-out: Test J disease control rating): 91%; pest or weed control at 40 ppm ([1]; Colletotrichum orbiculare, in Cucumis sativus, 144 h, read-out: Test B disease control rating, 40 ppm (marked *), 100 = 100% disease control, 0 = no control): 83%; pest or weed control at 40 ppm (fusarium graminearium; read-out: Test I disease control rating, 40 ppm (marked *), 100 = 100% disease control, 0 = no control): 91%; pest or weed control at 40 ppm (Plasmopara viticola; 40 ppm (marked *), 100 = 100% disease control, 0 = no control): 0%; pest or weed control at 40 ppm ([2]; Blumeria graminis, in Triticum aestivum, 168 h, read-out: Test L disease control rating, 40 ppm (marked *), 100 = 100% disease control, 0 = no control): 20%; pest or weed control at 40 ppm (Septoria nodorum; Parastagonospora nodorum, in Triticum aestivum, topical, 168 h, read-out: Test H disease control rating, 40 ppm (marked *), 100 = 100% disease control, 0 = no control): 98%; pest or weed control at 40 ppm (Rhizoctonia oryzae; Waitea circinata, in Agrostis stolonifera, topical, 144 h, read-out: Test G disease control rating, 40 ppm (marked *), 100 = 100% disease control, 0 = no control): 84%; pest or weed control at 40 ppm (Pythium aphanidermatum): 0% |
| CCC(C)Cn1c(-c2ccc(F)cc2F)c(C)nc(C#N)c1=N (stereo not drawn) [Compound 426, 5-(2,4-Difluorophenyl)-3,4-dihydro-3-imino-6-methyl-4-(2-methylbutyl)pyrazinecarbonitrile] | – | – | 73 to 77 | – | – | – | – | – | – | – | – | – | – | – | – | pest or weed control at 200 ppm (Septoria tritici; Zymoseptoria tritici, 528 h, 200 ppm, 100 = 100% disease control, 0 = no control relative to controls, read-out: Test J disease control rating): 0%; pest or weed control at 200 ppm (Phytophthora infestans; [5]): 0%; pest or weed control at 200 ppm ([1]; Colletotrichum orbiculare, in Cucumis sativus, 144 h, read-out: Test B disease control rating, 200 ppm, 100 = 100% disease control, 0 = no control relative to controls): 0%; pest or weed control at 200 ppm (fusarium graminearium; [12]): 0%; pest or weed control at 200 ppm (Botrytis cinerea; [7]): 0%; pest or weed control at 200 ppm (Plasmopara viticola; [12]): 0%; pest or weed control at 200 ppm ([2]; Blumeria graminis, in Triticum aestivum, 168 h, read-out: Test L disease control rating, 200 ppm, 100 = 100% disease control, 0 = no control relative to controls): 80%; pest or weed control at 200 ppm [3, 9]: 0%; pest or weed control at 200 ppm (Septoria nodorum; Parastagonospora nodorum, in Triticum aestivum, topical, 168 h, read-out: Test H disease control rating, 200 ppm, 100 = 100% disease control, 0 = no control relative to controls): 0%; pest or weed control at 200 ppm (Rhizoctonia oryzae; Waitea circinata, in Agrostis stolonifera, topical, 144 h, read-out: Test G disease control rating, 200 ppm, 100 = 100% disease control, 0 = no control relative to controls): 0%; pest or weed control at 200 ppm (Pythium aphanidermatum): 82% |
| Cc1ccn(-c2nc(Cl)c(C3CCCC3)n(CC(C)C)c2=O)n1 [compound 293] | – | – | – | 97 | 0 | 0 | 0 | 95 | 0 | 0 | 88 | 0 | 0 | 0 | 0 | – |
| Cc1ccn(-c2nc(Cl)c(C3CCCCC3)n(CC(C)C)c2=O)n1 [compound 294] | – | – | – | 95 | 0 | 0 | 0 | 31 | 0 | 0 | 54 | 0 | 0 | 0 | 0 | – |
| Cc1ccn(-c2nc(Cl)c(CC(C)C)n(CC(C)C)c2=O)n1 [compound 295] | – | – | – | 53 | 0 | 0 | 0 | 0 | 0 | 0 | 27 | 0 | 0 | 0 | 0 | – |
| CCC(C)Cn1c(-c2c(F)cccc2F)c(Cl)nc(C(=O)NC(C)C)c1=O (stereo not drawn) [compound 296] | – | – | – | 100 | 0 | 93 | 0 | 100 | 53 | 93 | 100 | 85 | 100 | 0 | 0 | – |
| CCC(C)Cn1c(-c2c(F)cccc2F)c(Cl)nc(C(=O)NCC2CC2)c1=O (stereo not drawn) [compound 300] | – | – | – | 100 | 0 | 93 | 0 | 100 | 40 | 97 | 100 | 0 | 99 | 16 | 0 | – |
| CCC(C)CNC(=O)c1nc(Cl)c(-c2c(F)cccc2F)n(CC(C)CC)c1=O (stereo not drawn) [compound 301] | – | – | – | 98 | 0 | 0 | 0 | 100 | 0 | 68 | 99 | 0 | 87 | 0 | 0 | – |

Reference: patent US20080194585A1, “Fungicidal Pyrazine Derivatives” (priority 2005, published 2008)
